Key:
[1] = tested on: DU145 cells; assay: DU145 proliferation/viability; assay type: cell-based, human; conditions: up to 10 times the IC50 required to reduce AR-dependent proliferation; 3 days
[2] = tested on: ER LBD; assay: Fluorescence polarization competition binding, ER LBD
[3] = tested on: full-length AR and V7; assay: Probasin luciferase activity in LNCaP cells, full-length AR and V7; conditions: I-EPI-002 2 μM, enzalutamide 5 μM; presence or absence of androgen
[4] = biological target: T1, PRβ (Homo sapiens, UniProt P06401); assay: PR transcriptional activity, PRE luciferase reporter; assay type: cell-based; conditions: 2 μM; progesterone 10 nM
T1 sequence (P06401 1-933): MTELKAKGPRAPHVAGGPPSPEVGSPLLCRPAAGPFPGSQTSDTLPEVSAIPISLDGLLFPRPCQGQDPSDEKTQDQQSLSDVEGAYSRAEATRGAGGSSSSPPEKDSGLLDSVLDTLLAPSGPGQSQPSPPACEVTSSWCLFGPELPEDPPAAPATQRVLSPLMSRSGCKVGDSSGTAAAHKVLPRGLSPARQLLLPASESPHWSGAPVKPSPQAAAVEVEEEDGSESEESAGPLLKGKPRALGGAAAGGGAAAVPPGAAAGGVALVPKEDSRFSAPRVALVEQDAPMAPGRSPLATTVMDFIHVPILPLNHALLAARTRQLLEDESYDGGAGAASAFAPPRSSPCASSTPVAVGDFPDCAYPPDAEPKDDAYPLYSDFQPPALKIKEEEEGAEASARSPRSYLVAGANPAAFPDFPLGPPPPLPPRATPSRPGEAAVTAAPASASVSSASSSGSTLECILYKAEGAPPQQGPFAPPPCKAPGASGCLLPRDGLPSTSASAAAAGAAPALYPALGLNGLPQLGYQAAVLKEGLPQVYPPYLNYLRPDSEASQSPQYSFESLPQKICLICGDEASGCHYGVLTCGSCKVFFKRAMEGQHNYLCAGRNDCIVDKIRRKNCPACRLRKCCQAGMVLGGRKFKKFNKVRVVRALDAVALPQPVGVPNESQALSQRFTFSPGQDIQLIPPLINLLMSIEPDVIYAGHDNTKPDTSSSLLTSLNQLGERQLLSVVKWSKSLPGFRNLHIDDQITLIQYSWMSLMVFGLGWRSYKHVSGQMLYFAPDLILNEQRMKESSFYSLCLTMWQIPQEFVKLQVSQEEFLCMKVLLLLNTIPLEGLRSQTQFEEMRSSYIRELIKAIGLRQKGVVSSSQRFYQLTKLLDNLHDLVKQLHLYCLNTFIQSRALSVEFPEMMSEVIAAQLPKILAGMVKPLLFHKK

[5] = biological target: T2, PR LBD (Homo sapiens, UniProt P06401); assay: Fluorescence polarization competition binding, PR LBD
T2 sequence (P06401 679-913 limits assumed): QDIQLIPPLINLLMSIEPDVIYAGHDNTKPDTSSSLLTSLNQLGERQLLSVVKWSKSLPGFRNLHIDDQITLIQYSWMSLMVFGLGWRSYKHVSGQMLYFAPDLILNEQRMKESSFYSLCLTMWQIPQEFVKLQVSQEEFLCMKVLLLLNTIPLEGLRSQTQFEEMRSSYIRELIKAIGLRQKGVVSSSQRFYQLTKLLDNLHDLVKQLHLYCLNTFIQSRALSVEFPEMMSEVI

[6] = biological target: T3, GR (Homo sapiens, UniProt P04150); assay: GR transcriptional activity, GRE luciferase reporter; assay type: cell-based; conditions: dexamethasone induced
T3 sequence (P04150 1-777): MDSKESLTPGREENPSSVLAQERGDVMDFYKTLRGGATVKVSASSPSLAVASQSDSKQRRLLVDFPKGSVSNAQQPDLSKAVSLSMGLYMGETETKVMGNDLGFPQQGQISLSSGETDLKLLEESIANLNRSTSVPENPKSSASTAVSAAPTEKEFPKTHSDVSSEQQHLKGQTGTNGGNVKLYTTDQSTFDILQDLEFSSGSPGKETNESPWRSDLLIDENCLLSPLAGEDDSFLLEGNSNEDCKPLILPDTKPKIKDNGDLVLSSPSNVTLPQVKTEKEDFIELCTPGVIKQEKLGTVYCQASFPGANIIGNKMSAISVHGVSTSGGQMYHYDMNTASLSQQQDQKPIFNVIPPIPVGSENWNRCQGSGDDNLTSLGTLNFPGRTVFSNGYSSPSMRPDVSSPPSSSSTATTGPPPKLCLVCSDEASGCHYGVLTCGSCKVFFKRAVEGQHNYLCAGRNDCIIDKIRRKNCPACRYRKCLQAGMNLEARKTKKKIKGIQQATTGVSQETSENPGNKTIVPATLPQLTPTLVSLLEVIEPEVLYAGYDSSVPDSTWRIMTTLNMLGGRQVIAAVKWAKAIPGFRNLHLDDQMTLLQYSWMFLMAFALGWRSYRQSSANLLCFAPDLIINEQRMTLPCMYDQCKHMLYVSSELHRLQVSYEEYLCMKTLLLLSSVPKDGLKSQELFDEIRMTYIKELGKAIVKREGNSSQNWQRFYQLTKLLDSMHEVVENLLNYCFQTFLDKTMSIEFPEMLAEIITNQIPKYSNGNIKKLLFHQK

15-IodoEPI002 [I-EPI-002]
effect on proliferation or viability of DU145 cells [1]: no effect | competition for ligand binding to ER LBD [2]: did not prevent ligand-binding | inhibition of probasin luciferase activity, full-length AR with V7 [3]: showed good inhibition | inhibition of PR transcriptional activity [4]: did not inhibit | competition for ligand binding to PR LBD [5]: did not prevent ligand-binding | inhibition of GR transcriptional activity [6]: did not inhibit
